31 molecules from patent US20120088665A1, “FUNGICIDAL MIXTURES” (BASF SE, priority 2009, published 2012) can be followed below.

One data set relates to Phytophthora infestans. As to the kind of experiment: microbe, parasite or virus in culture. It counts as cell-based.
A further data set has as its system Pyricularia oryzae. As to the kind of experiment: microbe, parasite or virus in culture. It counts as cell-based. Particulars: for Observed activity: Pyrior, single active compound.
In the next data set the test system is Fusarium culmorum. As to the kind of experiment: Activity against Fusarium culmorum in the microtiter test (Fusacu). Format: cell-based. Particulars: single active compound; for inhibition of growth at […] / inhibition of growth at 4 ppm / inhibition of growth at 16 ppm / inhibition of growth at 1 ppm / inhibition of growth at 0.063 ppm: Fusarium culmorum, 168 h, read-out: Observed activity; for inhibition of growth at […]: 0.25 ppm.

For the next data set, the system named is Botrytis cinerea. As to the kind of experiment: Activity against the gray mold pathogen Botrytis cinerea in the microtiter test (Botrci). It counts as cell-based. Particulars: for inhibition of growth at 0.016 ppm: conc 0.016 ppm; for inhibition of growth at […]: conc 0.25 ppm.
In another data set the test system is Septoria tritici. As to the kind of experiment: Activity against the Septoria leaf spot pathogen Septoria tritici in the microtiter test (Septtr). Format: cell-based. The conditions noted are these: single active compound; for inhibition of growth at 0.004 ppm: conc 0.004 ppm; for inhibition of growth at 0.016 ppm: conc 0.016 ppm; for inhibition of growth at 0.063 ppm: conc 0.063 ppm.

Setting [1] is: Botrytis cinerea, 168 h, read-out: Observed activity.
[2] abbreviates: Botrytis cinerea, 168 h, conc 0.063 ppm, read-out: Observed activity.
Where [3] appears, read: Zymoseptoria tritici, 168 h, read-out: Observed activity.
[4] abbreviates: Botrytis cinerea, 168 h, conc 1 ppm, read-out: Observed activity.
[5] abbreviates: Zymoseptoria tritici, 168 h, conc 1 ppm, read-out: Observed activity.
The mark [6] stands for this setting: Pyricularia oryzae, 168 h, read-out: Observed activity.
Where [7] appears, read: Zymoseptoria tritici, 168 h, conc 0.25 ppm, read-out: Observed activity.
Where [8] appears, read: Phytophthora infestans, 168 h, read-out: Observed activity.
Setting [9] is: Botrytis cinerea, 168 h, conc 4 ppm, read-out: Observed activity.

Where two headings read alike, the source gives them in different places.

As for “1-(4-chlorophenyl)-3-(5-mercapto-[1,2,4]triazol-1-ylmethyl)-4,4-dimethylpentan-3-ol [I-9]”, the Observed activity in the data set with Phytophthora infestans (conc 16 ppm) came out at 52%; in the data set on Pyricularia oryzae (conc 16 ppm), 57; in the data set on Fusarium culmorum (16 ppm) it was 4%; with Botrytis cinerea (conc 4 ppm) it was 23%; in the data set on Septoria tritici (conc 1 ppm), 20; in the data set on Septoria tritici (conc 4 ppm), 64.

Turning to `Fc1ccc([C@]2(Cn3cncn3)O[C@H]2c2ccccc2Cl)cc1` (racemic) [epoxiconazole], in the data set on Fusarium culmorum, the inhibition of growth at […] stood at 0%. For the same molecule, in the data set on Botrytis cinerea (setting [1]), the inhibition of growth at 0.016 ppm worked out at 7%. In addition, in the data set with Botrytis cinerea (setting [2]), the inhibition of growth at 0.063 ppm was 25%. In the data set with Septoria tritici (setting [3]), the inhibition of growth at 0.004 ppm worked out at 4% and the inhibition of growth at 0.016 ppm was determined as 47%.

For the molecule `CCCCCCCCc1c(CC)nc2ncnn2c1N` [5-ethyl-6-octyl-[1,2,4]triazolo-[1,5-a]pyrimidin-7-ylamine], the inhibition of growth at 4 ppm in the data set on Fusarium culmorum (4 ppm) was 2%.

Regarding `CCCCCCCCc1c(CC)nc2ncnn2c1N` [5-ethyl-6-octyl-[1,2,4]triazolo[1,5-a]pyrimidin-7-ylamine], the inhibition of growth at 1 ppm in the data set on Botrytis cinerea (setting [4]) came to 6%; in the data set on Septoria tritici (setting [5]), 0%.

The molecule `CC1(C)CCC(Cc2ccc(Cl)cc2)C1(O)Cn1ncnc1S` (centres unmarked) [I-4, 5-(4-chlorobenzyl)-1-(5-mercapto-[1,2,4]triazol-1-ylmethyl)-2,2-dimethylcyclopentanol] gave a melting point of 186 to 196 °C. The inhibition of growth at 4 ppm in the data set with Pyricularia oryzae (setting [6]) stood at 3%. The inhibition of growth at 16 ppm with Fusarium culmorum (16 ppm) is 3%. The inhibition of growth at 1 ppm with Botrytis cinerea (setting [4]) was found to be 28%. Besides, the inhibition of growth at […] with Septoria tritici (setting [7]) is 63%. Also, the inhibition of growth at 1 ppm with Septoria tritici (setting [5]) is 68%.

With `CCCCC(C#N)(Cn1ncnc1S)c1ccc(Cl)cc1` (centres unmarked) [I-10, 2-(4-chlorophenyl)-2-(5-mercapto-[1,2,4]triazol-1-ylmethyl)hexanenitrile], in the data set on Phytophthora infestans (setting [8]), the inhibition of growth at 4 ppm is 2%. In addition, the inhibition of growth at 16 ppm with Pyricularia oryzae (setting [6]) amounted to 8%. Further, in the data set on Septoria tritici (setting [5]), the inhibition of growth at 1 ppm is 2%.

With `CCCC(Cn1ncnc1S)c1ccc(Cl)cc1Cl` (centres unmarked) [I-16, 2-[2-(2,4-dichlorophenyl)pentyl]-2H-[1,2,4]triazole-3-thiol], the inhibition of growth at 16 ppm is 47% in the data set with Phytophthora infestans (setting [8]) and 6% with Fusarium culmorum (16 ppm). Besides, the inhibition of growth at 1 ppm with Pyricularia oryzae (setting [6]) stood at 1%. Also, the inhibition of growth at 4 ppm with Botrytis cinerea (setting [9]) came out at 31%.

For the molecule `CCCC1COC(Cn2ncnc2S)(c2ccc(Cl)cc2Cl)O1` (centres unmarked) [I-17, 2-[2-(2,4-dichlorophenyl)-4-propyl-[1,3]dioxolan-2-ylmethyl]-2H-[1,2,4]triazole-3-thiol], the inhibition of growth at 16 ppm in the data set with Fusarium culmorum (16 ppm) is 7%. In the data set on Botrytis cinerea (setting [9]), the inhibition of growth at 4 ppm was found to be 33%. Moreover, in the data set with Septoria tritici (setting [7]), the inhibition of growth at […] was 38%.

For `CC(C1CC1)C(O)(Cn1ncnc1S)c1ccc(Cl)cc1` (centres unmarked) [I-23], the figures for the Observed activity with Botrytis cinerea (conc 16 ppm), in the data set with Septoria tritici (conc 1 ppm) and with Septoria tritici (conc 4 ppm) were 26%, 7 and 9, respectively.

As for `O=C(Nc1ccccc1-c1ccc(Cl)cc1)c1cccnc1Cl` [II-24, boscalid], the inhibition of growth at 4 ppm with Pyricularia oryzae (setting [6]) and with Fusarium culmorum (4 ppm) was 0% throughout. For the same molecule, in the data set with Septoria tritici (setting [7]), the inhibition of growth at […] is 59%.

As to `Cn1cc(C(=O)Nc2ccccc2-c2cc(F)c(F)c(F)c2)c(C(F)F)n1` [N-(3′,4′,5′-trifluorobiphenyl-2-yl)-3-difluoromethyl-1-methyl-1H-pyrazole-4-carboxamide], in the data set with Botrytis cinerea (setting [1]), the inhibition of growth at 0.016 ppm was 9%. Besides, in the data set with Septoria tritici (setting [3]), the inhibition of growth at 0.004 ppm turned out to be 4%.

`N#Cc1c(Cl)c(Cl)c(Cl)c(C#N)c1Cl` [chlorothalonil]: the inhibition of growth at 0.016 ppm in the data set on Pyricularia oryzae (setting [6]) was 0%; in the data set with Botrytis cinerea (setting [1]), 2%; in the data set on Septoria tritici (setting [3]) it was 8%.

With `CC1CN(C2CCCCCCCCCCC2)CC(C)O1` (centres unmarked) [dodemorph], the inhibition of growth at 4 ppm in the data set on Pyricularia oryzae (setting [6]) amounted to 1%; with Botrytis cinerea (setting [9]), 33%; in the data set on Septoria tritici (Zymoseptoria tritici, 168 h, conc 4 ppm, read-out: Observed activity), 23%. In addition, the inhibition of growth at […] in the data set with Botrytis cinerea (setting [1]) was 7%; in the data set on Septoria tritici (setting [7]), 0%. Further, the inhibition of growth at 1 ppm in the data set with Botrytis cinerea (setting [4]) came out at 9%. For the same molecule, the inhibition of growth at 0.063 ppm with Septoria tritici (setting [3]) is 0%.

Take `CC(Cc1ccc(C(C)(C)C)cc1)CN1C[C@@H](C)O[C@@H](C)C1` (some centres unmarked) [fenpropimorph]: the inhibition of growth at 0.063 ppm in the data set on Phytophthora infestans (setting [8]) came to 4%; with Botrytis cinerea (setting [2]) it was 16%; in the data set with Septoria tritici (setting [3]), 3%. Also, the figures for the inhibition of growth at 1 ppm with Pyricularia oryzae (setting [6]) and in the data set with Fusarium culmorum were 14% and 9%, respectively. For the same molecule, the inhibition of growth at […] was determined as 26% in the data set on Botrytis cinerea (setting [1]) and 2% with Septoria tritici (setting [7]).

Regarding `O=C(NCCc1ncc(C(F)(F)F)cc1Cl)c1ccccc1C(F)(F)F` [fluopyram], the inhibition of growth at […] in the data set on Fusarium culmorum was determined as 0%. Besides, in the data set with Botrytis cinerea (setting [1]), the inhibition of growth at 0.016 ppm was determined as 0%. For the same molecule, the inhibition of growth at 0.063 ppm with Botrytis cinerea (setting [2]) was 0%.

For the molecule `O=c1c2cc(F)ccc2nc(-n2cncn2)n1-c1ccc(Cl)cc1Cl` [fluquinconazole], the inhibition of growth at 4 ppm with Fusarium culmorum (4 ppm) amounted to 0%.

As for `OC(Cn1cncn1)(c1ccc(F)cc1)c1ccccc1F` (centres unmarked) [flutriafol], the inhibition of growth at 16 ppm with Fusarium culmorum (16 ppm) is 29%; in the data set with Botrytis cinerea (Botrytis cinerea, 168 h, conc 16 ppm, read-out: Observed activity) it was 42%. Moreover, in the data set on Botrytis cinerea (setting [9]), the inhibition of growth at 4 ppm is 14%. Besides, in the data set on Septoria tritici (setting [7]), the inhibition of growth at […] stood at 3%.

For `CC(C)NC(=O)N1CC(=O)N(c2cc(Cl)cc(Cl)c2)C1=O` [iprodione], the inhibition of growth at 1 ppm in the data set on Pyricularia oryzae (setting [6]) was found to be 24%; with Fusarium culmorum, 3%. The inhibition of growth at 0.063 ppm with Septoria tritici (setting [3]) amounted to 11%.

Regarding `CO/N=C(/C(=O)OC)c1ccccc1COc1ccccc1C` [kresoxim-methyl], the results for the inhibition of growth at 1 ppm in the data set on Phytophthora infestans (setting [8]) and in the data set with Botrytis cinerea (setting [4]) were 47% and 17%, respectively. In addition, in the data set on Botrytis cinerea (setting [1]), the inhibition of growth at […] amounted to 3%.

For the molecule `COCC(=O)N(c1c(C)cccc1C)C(C)C(=O)OC` (centres unmarked) [metalaxyl], the inhibition of growth at 1 ppm with Phytophthora infestans (setting [8]) is 5%; in the data set on Pyricularia oryzae (setting [6]), 2%; in the data set with Botrytis cinerea (setting [4]), 5%. Further, the inhibition of growth at […] with Botrytis cinerea (setting [1]) came to 1%; with Septoria tritici (setting [7]), 0%. The inhibition of growth at 0.016 ppm in the data set with Septoria tritici (setting [3]) amounted to 0%.

For `CC1(C)CCC(Cc2ccc(Cl)cc2)C1(O)Cn1cncn1` (centres unmarked) [metconazole], in the data set on Fusarium culmorum, the inhibition of growth at 0.063 ppm was 0% and the inhibition of growth at […] amounted to 37%. For the same molecule, in the data set on Botrytis cinerea (setting [2]), the inhibition of growth at 0.063 ppm came out at 31%. For the same molecule, in the data set on Septoria tritici (setting [3]), the inhibition of growth at 0.004 ppm is 0% and the inhibition of growth at 0.016 ppm was 23%.

As for `COc1cc(C)c(C(=O)c2c(OC)ccc(Br)c2C)c(OC)c1OC` [metrafenone], the inhibition of growth at 1 ppm in the data set with Pyricularia oryzae (setting [6]) came to 11%; in the data set on Botrytis cinerea (setting [4]), 0%.

Consider `CNC(=O)/C(=N/OC)c1ccccc1CO/N=C(C)/C(=N/OC)C(/C)=N/OC` [orysastrobin], for which the Observed activity in the data set with Botrytis cinerea (conc 0.063 ppm) was determined as 1%.

Consider `OC(Cc1ccccc1Cl)(Cn1nc[nH]c1=S)C1(Cl)CC1` (centres unmarked) [prothioconazole], for which, in the data set on Fusarium culmorum, the inhibition of growth at […] is 0%. In addition, the inhibition of growth at 0.016 ppm with Botrytis cinerea (setting [1]) was 5%. In addition, the inhibition of growth at 0.063 ppm with Botrytis cinerea (setting [2]) stood at 17%. Also, the inhibition of growth at 0.004 ppm in the data set on Septoria tritici (setting [3]) came out at 0%.

With `COC(=O)N(OC)c1ccccc1COc1ccn(-c2ccc(Cl)cc2)n1` [pyraclostrobin], the inhibition of growth at 0.016 ppm with Phytophthora infestans (setting [8]) was determined as 13%; in the data set with Pyricularia oryzae (setting [6]) it was 54%; with Septoria tritici (setting [3]), 75%. Also, the inhibition of growth at 0.063 ppm in the data set with Phytophthora infestans (setting [8]) came to 26%; with Fusarium culmorum, 0%. Further, the values for the inhibition of growth at 0.004 ppm in the data set on Pyricularia oryzae (setting [6]) and in the data set on Septoria tritici (setting [3]) were 25% and 44%, respectively. Also, the inhibition of growth at […] in the data set on Septoria tritici (Zymoseptoria tritici, 168 h, conc 0.00025 ppm, read-out: Observed activity) was 5%.

Take `Cc1cc(C)nc(Nc2ccccc2)n1` [pyrimethanil]: the inhibition of growth at 4 ppm with Fusarium culmorum (4 ppm) came to 3%. Further, the inhibition of growth at 0.063 ppm with Botrytis cinerea (setting [2]) is 7%. Further, the inhibition of growth at 1 ppm with Septoria tritici (setting [5]) is 0%.

Regarding `CC(C)(C)C(O)(CCc1ccc(Cl)cc1)Cn1cncn1` (centres unmarked) [tebuconazole], in the data set with Phytophthora infestans (setting [8]), the inhibition of growth at 0.063 ppm was 3%. Besides, the inhibition of growth at 0.004 ppm with Pyricularia oryzae (setting [6]) was 4%.

As for `COC(=O)NC(=S)Nc1ccccc1NC(=S)NC(=O)OC` [thiophanate-methyl, thiophanate methyl], the inhibition of growth at 1 ppm came to 7% in the data set on Phytophthora infestans (setting [8]) and 4% with Pyricularia oryzae (setting [6]).

For `CC1(C)CCC(=Cc2ccc(Cl)cc2)C1(O)Cn1cncn1` (centres unmarked) [triticonazole], in the data set on Fusarium culmorum, the inhibition of growth at 1 ppm is 17%. Besides, the inhibition of growth at […] in the data set with Botrytis cinerea (setting [1]) came out at 29%. Also, the inhibition of growth at 0.063 ppm in the data set on Septoria tritici (setting [3]) worked out at 13%.

mancozeb: the Observed activity is on record as 23% in the data set on Phytophthora infestans (conc 1 ppm); 67 with Pyricularia oryzae (conc 4 ppm); 0% in the data set on Fusarium culmorum (4 ppm); 8% in the data set with Botrytis cinerea (conc 1 ppm); 23 in the data set on Septoria tritici (conc 4 ppm).

As for metiram, the Observed activity with Pyricularia oryzae (conc 1 ppm) is reported as 6; in the data set on Pyricularia oryzae (conc 16 ppm), 36; in the data set on Septoria tritici (conc 1 ppm), 17.
